In patent publication US6534494B1, “Process for the preparation of cefuroxime axetil in an amorphous form” (Ranbaxy Laboratories Limited, priority 1998, dated 2003):

Experiments:
[1] = compared with the crystalline form; cited from earlier work
[2] = amorphous form, purity at least 95%; cited from earlier work
[3] = Bulk density of crystalline feed material; assay type: physicochemical; conditions: crystalline feed material before milling
[4] = Particle size by scanning electron microscopy; assay type: physicochemical; conditions: crystalline feed material before milling
Procedure: 30 g of crystalline cefuroxime axetil S isomer with a particle size of 10-300 μm and having a bulk density of 0.391 g/cc, together with 3 g of sodium lauryl sulphate (SLS) were placed in the bowl of a Micros ‘0’ Super Fine Mill. Cold water was circulated through the outer jacket. The mill was operated with main shaft rotation set at 1000 rpm for 120 mins. The inner temperature was maintained in the range from 19-24° C. […] Samples of the material were examined by scanning electron microscopy and by X-ray diffraction crystallography.
Crystalline cefuroxime axetil S isomer with a particle size of 10-300 μm and having a bulk density of 0.391 g/cc, a mixture of crystalline cefuroxime axetil S isomer with crystalline cefuroxime axetil R isomer with a particle size of 5-50 μm, and having a bulk density of 0.221 g/cc. and crystalline cefuroxime axetil R,S racemic mixture were tested for conversion from the crystalline form to an amorphous form in different trials. The feed material consisted of cefuroxime axetil together with sodium lauryl sulphate or cefuroxime axetil together with sodium lauryl sulphate and colloidal silica (Aerosil 200). Samples of the material were withdrawn at various times for X-ray diffraction crystallography using a XRG 3000 diffractometer, and for scanning electron photomicrography. […] The percent crystallinity for the samples from Examples 6-9 was estimated to be less than 5% in all cases confirming the conversion of cefuroxime axetil to a predominantly (at least 95%) amorphous form.

[5] = listed as Crystalline cefuroxime axetil S isomer

Row | bulk density [3] [g/cc] | bulk density [3, 5] [g/cc] | particle size [4] | particle size [4, 5] | Compound | bioavailability [1] | chemical stability [2]
1 |  |  |  |  | CO/N=C(\C(=O)N[C@@H]1C(=O)N2C(C(=O)OC(C)OC(C)=O)=C(COC(N)=O)CS[C@H]12)c1ccco1 (some centres unmarked) [cefuroxime axetil in amorphous form, cefuroxime axetil] | higher bioavailability than the crystalline form | adequate chemical stability
2 | 0.391 | 0.391 | 10-300 μm | 10-300 μm | CO/N=C(\C(=O)N[C@@H]1C(=O)N2C(C(=O)OC(C)OC(C)=O)=C(COC(N)=O)CS[C@H]12)c1ccco1 (stereo partly drawn) [crystalline cefuroxime axetil S isomer, cefuroxime axetil] |  | 
3 | 0.221 |  | 5-50 μm |  | CO/N=C(\C(=O)N[C@@H]1C(=O)N2C(C(=O)OC(C)OC(C)=O)=C(COC(N)=O)CS[C@H]12)c1ccco1 (stereo partly drawn) [crystalline cefuroxime axetil R isomer, cefuroxime axetil] |  | 
